# Measured values from US20210053957A1, “HERBICIDAL COMPOUNDS” (SYNGENTA PARTICIPATIONS AG, priority 2018, published 2021).
# Key:
# Test in all cases: Post-emergence efficacy, glasshouse spray test
# Format in all cases: in vivo
# [1] = tested on: Chenopodium album (CHEAL); settings: Application Rate 500 g/Ha, evaluated after 13 days; for pest or weed control at 500 g/ha: Chenopodium album, post-emergence, 312 h, read-out: Control of weed species after post-emergence application, CHEAL (100=total damage to plant; 0=no damage to plant)
# Method: (§1) Seeds of a variety of test species were sown in standard soil in pots. After cultivation for 14 days (post-emergence) under controlled conditions in a glasshouse (at 24/16° C. day/night; 14 hours light; 65% humidity), the plants were sprayed with an aqueous spray solution derived from the dissolution of the technical active ingredient formula (I) in a small amount of acetone and a special solvent and emulsifier mixture referred to as IF50 (11.12% Emulsogen EL360 TM+44.44% N-methyl pyrrolidone+44.44% Dowanol DPM glycolether), to create a 50 g/l solution which was then diluted to required concentration using 0.25% or 1% Empicol ESC70 (Sodium lauryl ether sulphate)+1% ammonium sulphate as diluent. The test plants were then grown in a glasshouse under controlled conditions (at 24/16° C., day/night; 14 hours light; 65% humidity) and watered twice daily. After 13 days the test was evaluated (100=total damage to plant; 0=no damage to plant).
# (§2) Ipomoea hederacea (IPOHE), Euphorbia heterophylla (EPHHL), Chenopodium album (CHEAL), Amaranthus palmeri (AMAPA), Lolium perenne (LOLPE), Digitaria sanguinalis (DIGSA), Eleusine indica (ELEIN), Echinochloa crus-galli (ECHCG), Setaia fabei (SETFA)
# Setaia fabei (SETFA) = settings: Application Rate 500 g/Ha, evaluated after 13 days; for pest or weed control at 500 g/ha: Setaria faberi, post-emergence, 312 h, read-out: Control of weed species after post-emergence application, SETFA (100=total damage to plant; 0=no damage to plant)
# Method: as §1, §2
# Lolium perenne (LOLPE) = settings: Application Rate 500 g/Ha, evaluated after 13 days; for pest or weed control at 500 g/ha: Lolium perenne, post-emergence, 312 h, read-out: Control of weed species after post-emergence application, LOLPE (100=total damage to plant; 0=no damage to plant)
# Method: as §1, §2
# [2] = tested on: Digitaria sanguinalis (DIGSA); settings: Application Rate 500 g/Ha, evaluated after 13 days; for pest or weed control at 500 g/ha: Digitaria sanguinalis, post-emergence, 312 h, read-out: Control of weed species after post-emergence application, DIGSA (100=total damage to plant; 0=no damage to plant)
# Method: as §1, §2
# [3] = tested on: Ipomoea hederacea (IPOHE); settings: Application Rate 500 g/Ha, evaluated after 13 days; for pest or weed control at 500 g/ha: Ipomoea hederacea, post-emergence, 312 h, read-out: Control of weed species after post-emergence application, IPOHE (100=total damage to plant; 0=no damage to plant)
# Method: as §1, §2
# [4] = tested on: Amaranthus palmeri (AMAPA); settings: Application Rate 500 g/Ha, evaluated after 13 days; for pest or weed control at 500 g/ha: Amaranthus palmeri, post-emergence, 312 h, read-out: Control of weed species after post-emergence application, AMAPA (100=total damage to plant; 0=no damage to plant)
# Method: as §1, §2
# [5] = tested on: Euphorbia heterophylla (EPHHL); settings: Application Rate 500 g/Ha, evaluated after 13 days; for pest or weed control at 500 g/ha: Euphorbia heterophylla, post-emergence, 312 h, read-out: Control of weed species after post-emergence application, EPHHL (100=total damage to plant; 0=no damage to plant)
# Method: as §1, §2
# [6] = tested on: Echinochloa crus-galli (ECHCG); settings: Application Rate 500 g/Ha, evaluated after 13 days; for pest or weed control at 500 g/ha: Echinochloa crus-galli, post-emergence, 312 h, read-out: Control of weed species after post-emergence application, ECHCG (100=total damage to plant; 0=no damage to plant)
# Method: as §1, §2
# Eleusine indica (ELEIN) = settings: Application Rate 500 g/Ha, evaluated after 13 days; for pest or weed control at 500 g/ha: Eleusine indica, post-emergence, 312 h, read-out: Control of weed species after post-emergence application, ELEIN (100=total damage to plant; 0=no damage to plant)
# Method: as §1, §2
SMILES,pest or weed control at 500 g/ha [1] [%],pest or weed control at 500 g/ha (Setaia fabei (SETFA)) [%],pest or weed control at 500 g/ha (Lolium perenne (LOLPE)) [%],pest or weed control at 500 g/ha [2] [%],pest or weed control at 500 g/ha [3] [%],pest or weed control at 500 g/ha [4] [%],pest or weed control at 500 g/ha [5] [%],pest or weed control at 500 g/ha [6] [%],pest or weed control at 500 g/ha (Eleusine indica (ELEIN)) [%],"Control of weed species after post-emergence application, CHEAL (100=total damage to plant; 0=no damage to plant) [1]","Control of weed species after post-emergence application, SETFA (100=total damage to plant; 0=no damage to plant) (Setaia fabei (SETFA))","Control of weed species after post-emergence application, LOLPE (100=total damage to plant; 0=no damage to plant) (Lolium perenne (LOLPE))","Control of weed species after post-emergence application, DIGSA (100=total damage to plant; 0=no damage to plant) [2]","Control of weed species after post-emergence application, IPOHE (100=total damage to plant; 0=no damage to plant) [3]","Control of weed species after post-emergence application, AMAPA (100=total damage to plant; 0=no damage to plant) [4]","Control of weed species after post-emergence application, EPHHL (100=total damage to plant; 0=no damage to plant) [5]","Control of weed species after post-emergence application, ECHCG (100=total damage to plant; 0=no damage to plant) [6]","Control of weed species after post-emergence application, ELEIN (100=total damage to plant; 0=no damage to plant) (Eleusine indica (ELEIN))"
O=S(=O)([O-])CC[n+]1ccc(-c2ccon2)cn1 [Compound A64],90,80,40,90,90,100,100,80,30,–,–,–,–,–,–,–,–,–
O=S(=O)([O-])CC[n+]1ccc(-c2ccsn2)cn1 [Compound A105],90,90,70,100,70,90,100,80,90,–,–,–,–,–,–,–,–,–
O=C(O)CC[n+]1ccc(-c2cnsc2)cn1 [Compound A62],20,0,0,10,20,0,40,0,0,–,–,–,–,–,–,–,–,–
O=S(=O)([O-])CCC[n+]1ccc(-c2nnco2)cn1 [Compound A7],0,10,10,30,10,0,20,10,20,–,–,–,–,–,–,–,–,–
CC(C[n+]1ccc(-c2ncco2)cn1)C(=O)O (stereo not drawn) [Compound A88],100,60,30,70,30,100,50,80,30,–,–,–,–,–,–,–,–,–
COP(=O)(C[n+]1ccc(-c2ncco2)cn1)OC [Compound A94],–,–,–,–,–,–,–,–,–,90,90,40,100,90,90,100,90,100
Nc1nnc(-c2cc[n+](CCC(=O)O)nc2)s1 [Compound A47],100,90,100,90,30,100,100,90,100,–,–,–,–,–,–,–,–,–
COP(=O)([O-])C[n+]1ccc(-c2ncco2)cn1 [Compound A103],40,80,30,90,40,70,70,70,60,–,–,–,–,–,–,–,–,–
"O=S(=O)([O-])CC[n+]1ccc(-c2nccs2)cn1 [Compound A1, 2-(4-thiazol-2-ylpyridazin-1-ium-1-yl)ethanesulfonate]",70,50,90,100,50,100,70,60,50,–,–,–,–,–,–,–,–,–
Cc1coc(-c2cc[n+](CCS(=O)(=O)[O-])nc2)n1 [Compound A40],100,80,80,80,90,100,100,80,100,–,–,–,–,–,–,–,–,–
CCOC(=O)CC[n+]1ccc(-c2cocn2)cn1 [Compound A20],20,20,10,60,10,40,10,30,50,–,–,–,–,–,–,–,–,–
CCOP(=O)(O)CC[n+]1ccc(-c2ncco2)cn1 [Compound A85],0,20,10,40,30,10,20,20,30,–,–,–,–,–,–,–,–,–
Cn1ncc(-c2cc[n+](CCS(=O)(=O)[O-])nc2)n1 [Compound A6],40,70,60,60,10,90,20,60,60,–,–,–,–,–,–,–,–,–
O=S(=O)([O-])CC[n+]1ccc(-c2ncns2)cn1 [Compound A9],70,60,30,70,80,90,90,60,80,–,–,–,–,–,–,–,–,–
Cn1ncnc1-c1cc[n+](CCS(=O)(=O)[O-])nc1 [Compound A16],100,80,90,70,80,100,90,80,80,–,–,–,–,–,–,–,–,–
CCOC(=O)c1oc(-c2cc[n+](CCC(=O)O)nc2)nc1C [Compound A130],50,30,50,60,50,100,100,60,80,–,–,–,–,–,–,–,–,–
Cn1nnnc1-c1cc[n+](CCS(=O)(=O)O)nc1 [Compound A12],30,40,70,60,20,60,20,30,30,–,–,–,–,–,–,–,–,–
